Earlier results as cited in publication PMC8373983, “Effect of salinity on the zinc(II) binding efficiency of siderophore functional groups and implications for salinity tolerance mechanisms in barley” (Scientific Reports, 2021).
Like-named read-outs stand apart in the source and are kept apart here.

Experiments:
barley plants = settings: cited from earlier work
[1] = system: wild and cultivated barley plants; settings: 0.20 M NaCl; hydroponic, no initial micronutrient deficiencies; cited from earlier work

Structure (SMILES): [Cl-].[Na+] [NaCl]
- Zinc(II) content ratio (barley plants; Leaves, Iranis, 0.08 M NaCl, pH 7.5, soil, 350 μmol/mol CO2): 0.88
- Zinc(II) content ratio (barley plants; Leaves, Iranis, 0.08 M NaCl, pH 7.5, soil, 700 μmol/mol CO2): 1.25
- Zinc(II) content ratio (barley plants; Leaves, Iranis, 0.16 M NaCl, pH 7.5, soil, 350 μmol/mol CO2): 0.94
- Zinc(II) content ratio (barley plants; Leaves, Iranis, 0.16 M NaCl, pH 7.5, soil, 700 μmol/mol CO2): 1.19
- Zinc(II) content ratio (barley plants; Leaves, Iranis, 0.24 M NaCl, pH 7.5, soil, 350 μmol/mol CO2): 1.35
- Zinc(II) content ratio (barley plants; Leaves, Iranis, 0.24 M NaCl, pH 7.5, soil, 700 μmol/mol CO2): 1.31
- Zinc(II) content ratio (barley plants; Roots, CM72, 0.15 M NaCl, pH 6.5, soil, Cr 0 μM): 0.68
- Zinc(II) content ratio (barley plants; Roots, CM72, 0.15 M NaCl, pH 6.5, soil, Cr 10 μM): 0.66
- Zinc(II) content ratio (barley plants; Roots, CM72, 0.15 M NaCl, pH 6.5, soil, Cr 50 μM): 0.82
- Zinc(II) content ratio (barley plants; Roots, Gairdner, 0.15 M NaCl, pH 6.5, soil, Cr 0 μM): 0.51
- Zinc(II) content ratio (barley plants; Roots, Gairdner, 0.15 M NaCl, pH 6.5, soil, Cr 10 μM): 0.56
- Zinc(II) content ratio (barley plants; Roots, Gairdner, 0.15 M NaCl, pH 6.5, soil, Cr 50 μM): 0.59
- Zinc(II) content ratio (barley plants; Roots, Iranis, 0.08 M NaCl, pH 7.5, soil, 350 μmol/mol CO2): 1.08
- Zinc(II) content ratio (barley plants; Roots, Iranis, 0.08 M NaCl, pH 7.5, soil, 700 μmol/mol CO2): 1.11
- Zinc(II) content ratio (barley plants; Roots, Iranis, 0.16 M NaCl, pH 7.5, soil, 350 μmol/mol CO2): 0.90
- Zinc(II) content ratio (barley plants; Roots, Iranis, 0.16 M NaCl, pH 7.5, soil, 700 μmol/mol CO2): 1.00
- Zinc(II) content ratio (barley plants; Roots, Iranis, 0.24 M NaCl, pH 7.5, soil, 350 μmol/mol CO2): 0.97
- Zinc(II) content ratio (barley plants; Roots, Iranis, 0.24 M NaCl, pH 7.5, soil, 700 μmol/mol CO2): 0.96
- Zinc(II) content ratio (barley plants; Shoots, CM72, 0.15 M NaCl, pH 6.5, soil, Cr 0 μM): 0.79
- Zinc(II) content ratio (barley plants; Shoots, CM72, 0.15 M NaCl, pH 6.5, soil, Cr 10 μM): 0.82
- Zinc(II) content ratio (barley plants; Shoots, CM72, 0.15 M NaCl, pH 6.5, soil, Cr 50 μM): 0.98
- Zinc(II) content ratio (barley plants; Shoots, Gairdner, 0.15 M NaCl, pH 6.5, soil, Cr 0 μM): 0.67
- Zinc(II) content ratio (barley plants; Shoots, Gairdner, 0.15 M NaCl, pH 6.5, soil, Cr 10 μM): 0.72
- Zinc(II) content ratio (barley plants; Shoots, Gairdner, 0.15 M NaCl, pH 6.5, soil, Cr 50 μM): 0.97
- Zinc(II) content ratio (barley plants; Stems, Iranis, 0.08 M NaCl, pH 7.5, soil, 350 μmol/mol CO2): 1.25
- Zinc(II) content ratio (barley plants; Stems, Iranis, 0.08 M NaCl, pH 7.5, soil, 700 μmol/mol CO2): 0.95
- Zinc(II) content ratio (barley plants; Stems, Iranis, 0.16 M NaCl, pH 7.5, soil, 350 μmol/mol CO2): 0.81
- Zinc(II) content ratio (barley plants; Stems, Iranis, 0.16 M NaCl, pH 7.5, soil, 700 μmol/mol CO2): 0.95
- Zinc(II) content ratio (barley plants; Stems, Iranis, 0.24 M NaCl, pH 7.5, soil, 350 μmol/mol CO2): 1.19
- Zinc(II) content ratio (barley plants; Stems, Iranis, 0.24 M NaCl, pH 7.5, soil, 700 μmol/mol CO2): 1.16
- Zinc(II) content ratio (barley plants; Whole-plant, Bajwar-200, 0.04 M NaCl, pH 5.6, hydroponic): 0.99
- Zinc(II) content ratio (barley plants; Whole-plant, Bajwar-200, 0.08 M NaCl, pH 5.6, hydroponic): 1.03
- Zinc(II) content ratio (barley plants; Whole-plant, Bajwar-200, 0.12 M NaCl, pH 5.6, hydroponic): 1.18
- Zinc(II) content ratio (barley plants; Whole-plant, TARM-92, 0.09 M NaCl, pH 8.1, soil, seeds soaked in 0.5 mM Kinetin): 1.12
- Zinc(II) content ratio (barley plants; Whole-plant, TARM-92, 0.09 M NaCl, pH 8.1, soil, seeds soaked in 2.0 mM GA3): 2.00
- Zinc(II) content ratio (barley plants; Whole-plant, TARM-92, 0.09 M NaCl, pH 8.1, soil, seeds soaked in H2O): 1.07
- Zinc(II) content ratio (barley plants; Whole-plant, TARM-92, 0.16 M NaCl, pH 8.1, soil, seeds soaked in 0.5 mM Kinetin): 1.13
- Zinc(II) content ratio (barley plants; Whole-plant, TARM-92, 0.16 M NaCl, pH 8.1, soil, seeds soaked in 2.0 mM GA3): 1.06
- Zinc(II) content ratio (barley plants; Whole-plant, TARM-92, 0.16 M NaCl, pH 8.1, soil, seeds soaked in H2O): 1.09
- Zinc(II) content ratio (barley plants; Whole-plant, TARM-92, 0.24 M NaCl, pH 8.1, soil, seeds soaked in 0.5 mM Kinetin): 1.05
- Zinc(II) content ratio (barley plants; Whole-plant, TARM-92, 0.24 M NaCl, pH 8.1, soil, seeds soaked in 2.0 mM GA3): 0.88
- Zinc(II) content ratio (barley plants; Whole-plant, TARM-92, 0.24 M NaCl, pH 8.1, soil, seeds soaked in H2O): 1.17
- increase in phytosiderophore release [1]: 2.5–3 times
